# pIC50: −log10 of the molar value. Like-named read-outs stand apart in the source and are kept apart here.
# Molecular target: Human recombinant Histone Deacetylase 8 (HDAC8) (Homo sapiens (Human), UniProt Q9BY41)
# Assay: HDAC8 Enzymatic Assay (HDAC-Glo I/II luminescence)
# Assay type: biochemical
# How it was run: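 Human recombinant HDAC8 (1.5 nM final) preincubated with compound for 30 min, then reacted with 50 μM Boc-GAK(Ac)-aminoluciferin plus trypsin-containing developer for 15 min at room temperature, pH 8.0, 0.5% DMSO. Luminescence read-out; IC50 from percent control activity versus log concentration.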
# [1] = class symbols, Table 14, read-out: HDAC8 IC50
# Chain of Human recombinant Histone Deacetylase 8 (HDAC8) (Q9BY41 whole entry): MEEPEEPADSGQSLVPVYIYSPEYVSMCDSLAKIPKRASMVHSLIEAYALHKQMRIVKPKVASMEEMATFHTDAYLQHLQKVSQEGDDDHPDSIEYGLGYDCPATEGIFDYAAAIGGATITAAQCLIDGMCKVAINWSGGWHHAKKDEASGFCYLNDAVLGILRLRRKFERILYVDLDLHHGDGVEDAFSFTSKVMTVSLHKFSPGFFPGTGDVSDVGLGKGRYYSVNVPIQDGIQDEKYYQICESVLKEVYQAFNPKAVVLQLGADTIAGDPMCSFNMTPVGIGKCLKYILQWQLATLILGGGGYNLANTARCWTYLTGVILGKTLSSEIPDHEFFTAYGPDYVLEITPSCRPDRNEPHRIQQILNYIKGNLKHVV
structure (smiles),measurement,setting,value
"O=C(NO)C(Cc1ccccc1)n1ncc2cc(Br)ccc21 (stereo not shown) [Compound I-0017, 2-(5-bromo-1H-indazol-1-yl)-N-hydroxy-3-phenylpropanamide]",pIC50,[1],6.70 to 7.30
"Cc1ccc2nn(C(Cc3ccccc3)C(=O)NO)cc2c1 (stereo not shown) [Compound I-0049, N-hydroxy-2-(5-methyl-2H-indazol-2-yl)-3-phenylpropanamide]",pIC50,[1],< 6.30
"O=C(NO)C(Cc1ccccc1)n1cc2cncc(I)c2n1 (stereo not shown) [Compound I-0054, N-hydroxy-2-(7-iodo-2H-pyrazolo[4,3-c]pyridin-2-yl)-3-phenylpropanamide]",pIC50,[1],< 6.30
"O=C(NC1CCOCC1)c1cccc2cn(C(Cc3ccccc3)C(=O)NO)nc12 (stereo not shown) [Compound I-0176, 2-(1-(hydroxyamino)-1-oxo-3-phenylpropan-2-yl)-N-(tetrahydro-2H-pyran-4-yl)-2H-indazole-7-carboxamide]",pIC50,[1],6.70 to 7.30
"O=C(NO)C(Cc1ccccc1)n1cc2cccc(CNC3CC3)c2n1 (stereo not shown) [Compound I-0180, 2-{7-[(Cyclopropylamino)methyl]-2H-indazol-2-yl}-N-hydroxy-3-phenylpropanamide]",pIC50,"HDAC8, read-out: IC50",6.33
same,pIC50,[1],6.30 to 6.70
"O=C(NO)C(Cc1ccccc1)n1cc2nc(Cl)ccc2n1 (stereo not shown) [Compound I-0077, 2-(5-chloro-2H-pyrazolo[4,3-b]pyridin-2-yl)-N-hydroxy-3-phenylpropanamide]",pIC50,[1],< 6.30
"COc1ncc(-c2ccc3nn(C(Cc4ccccc4)C(=O)NO)cc3c2)cn1 (stereo not shown) [Compound I-0035, N-hydroxy-2-(5-(2-methoxypyrimidin-5-yl)-2H-indazol-2-yl)-3-phenylpropanamide]",pIC50,[1],6.30 to 6.70
"O=C(NO)C(Cc1ccccc1)n1nc2c(Cl)cccc2c1I (stereo not shown) [Compound I-0135, 2-(7-chloro-3-iodo-2H-indazol-2-yl)-N-hydroxy-3-phenylpropanamide]",pIC50,[1],6.30 to 6.70
"O=C(NO)C(Cc1ccccc1)n1ncc2c(-c3cncnc3)cccc21 (stereo not shown) [Compound I-0081, N-hydroxy-3-phenyl-2-(4-(pyrimidin-5-yl)-1H-indazol-1-yl)propanamide]",pIC50,[1],6.70 to 7.30
"O=C(NO)C(Cc1ccccc1)n1nc2c(Cl)cccc2c1C#CC1CC1 (stereo not shown) [Compound I-0136, 2-(7-chloro-3-(cyclopropylethynyl)-2H-indazol-2-yl)-N-hydroxy-3-phenylpropanamide]",pIC50,[1],≥ 7.30
"CN(C)C(=O)c1ccc(-c2nccc3c(C#CC4CC4)n(C(Cc4ccccc4)C(=O)NO)nc23)cc1 (stereo not shown) [Compound I-0142, 4-(3-(cyclopropylethynyl)-2-(1-(hydroxyamino)-1-oxo-3-phenylpropan-2-yl)-2H-pyrazolo[3,4-c]pyridin-7-yl)-N,N-dimethylbenzamide]",pIC50,[1],≥ 7.30
"CN(C)C(=O)c1cccc(-c2cccc3c(C#CC4CC4)n(C(Cc4ccccc4)C(=O)NO)nc23)c1 (stereo not shown) [Compound I-0159, 3-(3-(cyclopropylethynyl)-2-(1-(hydroxyamino)-1-oxo-3-phenylpropan-2-yl)-2H-indazol-7-yl)-N,N-dimethylbenzamide]",pIC50,[1],≥ 7.30
"O=C(NO)C(Cc1ccccc1)n1ncc2cc(-c3ccccc3)ncc21 (stereo not shown) [Compound I-0086, N-hydroxy-3-phenyl-2-(5-phenyl-1H-pyrazolo[3,4-c]pyridin-1-yl)propanamide]",pIC50,[1],< 6.30
"CN(C)C(=O)c1ccc(-c2cccc3c(C#CC4CC4)n(C(Cc4ccccc4)C(=O)NO)nc23)cc1 (stereo not shown) [Compound I-0139, 4-(3-(cyclopropylethynyl)-2-(1-(hydroxyamino)-1-oxo-3-phenylpropan-2-yl)-2H-indazol-7-yl)-N,N-dimethylbenzamide]",pIC50,[1],≥ 7.30
"O=C(NO)C(Cc1ccccc1)n1cc2c(-c3ccncc3)cccc2n1 (stereo not shown) [Compound I-0058, N-hydroxy-3-phenyl-2-(4-(pyridin-4-yl)-2H-indazol-2-yl)propanamide]",pIC50,[1],6.30 to 6.70
"COc1ccc(-c2cc3cnn(C(Cc4ccccc4)C(=O)NO)c3cn2)cn1 (stereo not shown) [Compound I-0096, N-hydroxy-2-(5-(6-methoxypyridin-3-yl)-1H-pyrazolo[3,4-c]pyridin-1-yl)-3-phenylpropanamide]",pIC50,[1],< 6.30
"N#Cc1ccc(-c2cnc3c(cnn3C(Cc3ccccc3)C(=O)NO)c2)cc1 (stereo not shown) [Compound I-0117, 2-(5-(4-cyanophenyl)-1H-pyrazolo[3,4-b]pyridin-1-yl)-N-hydroxy-3-phenylpropanamide]",pIC50,[1],< 6.30
"Cn1nccc1-c1ccc2c(C(Cc3ccccc3)C(=O)NO)nn(C)c2c1 (stereo not shown) [Compound I-0203, N-hydroxy-2-(1-methyl-6-(1-methyl-1H-pyrazol-5-yl)-1H-indazol-3-yl)-3-phenylpropanamide]",pIC50,[1],6.70 to 7.30
"Cc1ccc2nn(C(Cc3ccccc3)C(=O)NO)c(C#CC3CC3)c2c1 (stereo not shown) [Compound I-0032, 2-(3-(cyclopropylethynyl)-5-methyl-2H-indazol-2-yl)-N-hydroxy-3-phenylpropanamide]",pIC50,[1],≥ 7.30
"O=C(NO)C(Cc1ccccc1)n1nc2ccc(-c3ccncc3)cc2c1C#CC1CC1 (stereo not shown) [Compound I-0029, 2-(3-(cyclopropylethynyl)-5-(pyridin-4-yl)-2H-indazol-2-yl)-N-hydroxy-3-phenylpropanamide]",pIC50,[1],6.70 to 7.30
"O=C(NO)C(Cc1ccccc1)n1cc2cccc(C(=O)N3CCOCC3)c2n1 (stereo not shown) [Compound I-0173, N-hydroxy-2-[7-(morpholin-4-ylcarbonyl)-2H-indazol-2-yl]-3-phenylpropanamide]",pIC50,"HDAC8, read-out: IC50",5.93
same,pIC50,[1],< 6.30
"Cn1nccc1-c1cccc2cn(C(Cc3ccccc3)C(=O)NO)nc12 (stereo not shown) [Compound I-0067, N-hydroxy-2-(7-(1-methyl-1H-pyrazol-5-yl)-2H-indazol-2-yl)-3-phenylpropanamide]",pIC50,[1],6.70 to 7.30
"COCCn1cc(-c2cccc3c(C#CC4CC4)n(C(Cc4ccccc4)C(=O)NO)nc23)c(C)n1 (stereo not shown) [Compound I-0165, 2-(3-(cyclopropylethynyl)-7-(1-(2-methoxyethyl)-3-methyl-1H-pyrazol-4-yl)-2H-indazol-2-yl)-N-hydroxy-3-phenylpropanamide]",pIC50,[1],≥ 7.30

# From patent US10723705B2, “Heterocyclic compounds and uses thereof” (Incyte Corporation, priority 2015, dated 2020)
